pIC50: −log10 of the molar value.
biological target: T1, aurora A kinase (Homo sapiens, UniProt O14965); assay: Aurora A in vitro kinase assay (ELISA); format: biochemical; settings: 30 μM ATP, 45 minutes
T1 sequence (O14965 1-403): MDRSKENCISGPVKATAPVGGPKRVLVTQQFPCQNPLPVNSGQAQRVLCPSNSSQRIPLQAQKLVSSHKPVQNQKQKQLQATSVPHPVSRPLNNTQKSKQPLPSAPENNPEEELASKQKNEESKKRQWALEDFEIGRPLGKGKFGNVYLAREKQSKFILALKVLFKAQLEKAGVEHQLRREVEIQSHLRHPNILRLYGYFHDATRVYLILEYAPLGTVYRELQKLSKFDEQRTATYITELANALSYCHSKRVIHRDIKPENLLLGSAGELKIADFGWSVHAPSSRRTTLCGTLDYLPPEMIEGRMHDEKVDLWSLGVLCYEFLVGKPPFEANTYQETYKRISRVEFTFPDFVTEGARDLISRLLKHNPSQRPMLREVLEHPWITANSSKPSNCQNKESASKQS
Description: Kinase activities were measured by Enzyme-Linked Immunosorbent Assay (ELISA): Maxisorp 384-well plates (Nunc) were coated with recombinant fusion protein comprising residues 1-15 of Histone H3 fused to the N-terminus of Glutathione-S-Transferase. Plates were then blocked with a solution of 1 mg/mL I-block (Tropix Inc) in phosphate-buffered saline. Kinase reactions were carried out in the wells of the ELISA plate by combining an appropriate amount of Aur A and B kinases and/or mutants thereof with test compound and 30 μM ATP. The reaction buffer was 1× Kinase Buffer (Cell Signaling Technologies) supplemented with 1 μg/mL I-block. Reactions were stopped after 45 minutes by addition of 25 mM EDTA. After washing, susbstrate phosphorylation was detected by addition of anti-phospho-Histone H3 (Ser 10) 6G3 mAb (Cell Signaling cat #9706) and sheep anti-mouse pAb-HRP (Amersham cat# NA931V), followed by colorimetric development with TMB.

Row | SMILES | pIC50
1 | O=C(Nc1ccccc1Nc1nc(Nc2ccc(N3CCOCC3)cc2)ncc1[N+](=O)[O-])C1CC1 [compound 127] | 7.99
2 | CN(C)CCNC(=O)c1ccc(Nc2ncc(Cl)c(Nc3ccccc3NC(=O)C3CC3)n2)cc1 [compound 9] | 8.60
3 | N#Cc1ccc(Nc2ncc(Cl)c(Nc3ccccc3NC(=O)C3CC3)n2)cc1 [compound 32] | 8.89
4 | O=C(Nc1ccccc1Oc1nc(Nc2ccc(N3CCOCC3)cc2)ncc1Cl)C1CC1 [compound 80] | 7.44
5 | O=C(Nc1ccccc1Nc1nc(Nc2ccc(N3CCOCC3)cc2)ncc1Cl)C1CCCCC1 [compound 75] | 7.85
6 | CC(C)(C)C(=O)Nc1ccccc1Nc1nc(Nc2ccc(N3CCOCC3)cc2)ncc1Cl [compound 77] | 8.38
7 | O=C(Nc1ccccc1Nc1nc(Nc2ccc(C(=O)N3CCC(O)(Cc4ccccc4)CC3)cc2)ncc1Cl)C1CC1 [compound 44] | 8.74
8 | O=C(Nc1ccccc1Nc1nc(Nc2ccc(-n3cccc3)cc2)ncc1Cl)C1CC1 [compound 53] | 8.19
9 | O=C(NC1CC1)c1ccccc1Nc1nc(Nc2ccc(N3CCOCC3)cc2)ncc1Cl [compound 85] | 8.37
10 | O=C(Nc1ccccc1Nc1nc(Nc2ccc(N3CCOCC3)cc2)ncc1F)C1CC1 [compound 111] | 8.30
11 | O=C(Nc1ccccc1Nc1nc(Nc2ccc(N3CCOCC3)cc2)ncc1Cl)c1ccccc1 [compound 67] | 7.74
12 | CC(C)(C)C1CCC(NC(=O)c2ccc(Nc3ncc(Cl)c(Nc4ccccc4NC(=O)C4CC4)n3)cc2)CC1 (centres unmarked) [compound 40] | 7.92
13 | Nc1ccccc1Oc1nc(Nc2ccc(N3CCS(=O)(=O)CC3)cc2)ncc1Cl [compound 83] | 8.30
14 | O=C(/C=C/c1ccccc1)Nc1ccccc1Nc1nc(Nc2ccc(N3CCOCC3)cc2)ncc1Cl [compound 63] | 8.36
